We go through 14 molecules from patent US11173151B2, “Substituted triazole derivatives and uses thereof” (BAYER AKTIENGESELLSCHAFT, priority 2017, dated 2021).

In assay [1] the target is T1, human V1a receptor (Homo sapiens, UniProt P37288).
T1 construct: expressed in transfected cells; host or cells: CHO K1 (ATCC), also stably transfected with a modified aequorin
As to the kind of experiment: Cellular in vitro assay for determining vasopressin receptor activity, V1a receptor cell line (CHO, aequorin luminescence). It is filed as cell-based. The note with it: for IC50: CHO cell line transfected with human V1a receptor, [Arg]-vasopressin at EC50 concentration, read-out: IC50 hV1a; for ratio IC50 hV2/hV1a: selectivity ratio IC50 hV2 / IC50 hV1a. In a few lines:
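Antagonism is measured in stable CHO K1 transfectants coexpressing the Gαq-coupled receptor and a calcium-sensitive aequorin photoprotein. Agonist challenge uses [Arg]-vasopressin at EC50 after a 10-minute compound exposure; IC50 values come from the luminescence signal.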

Assay [2] concerns the target T2, human V2 receptor (Homo sapiens, UniProt P30518).
T2 construct: expressed in transfected cells; host or cells: CHO K1 (ATCC) expressing firefly luciferase under a CRE-responsive promoter
Briefly: Cellular in vitro assay for determining vasopressin receptor activity, V2 receptor cell line (CHO, CRE-luciferase). Format: cell-based. The following applies: CHO cell line transfected with human V2 receptor; [Arg8]-vasopressin at EC50 concentration, 3 hours; read-out: IC50 hV2.

T2 sequence (P30518 whole entry): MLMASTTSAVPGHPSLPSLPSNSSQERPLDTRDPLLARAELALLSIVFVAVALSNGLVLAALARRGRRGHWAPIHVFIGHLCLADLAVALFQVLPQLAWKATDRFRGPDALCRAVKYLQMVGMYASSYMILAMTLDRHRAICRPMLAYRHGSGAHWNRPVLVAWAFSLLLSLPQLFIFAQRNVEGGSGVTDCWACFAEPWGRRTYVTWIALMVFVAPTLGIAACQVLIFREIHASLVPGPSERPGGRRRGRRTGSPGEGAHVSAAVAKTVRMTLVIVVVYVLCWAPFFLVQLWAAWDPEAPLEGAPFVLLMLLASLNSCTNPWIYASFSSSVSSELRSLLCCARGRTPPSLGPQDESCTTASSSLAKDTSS
T1 sequence (P37288 whole entry): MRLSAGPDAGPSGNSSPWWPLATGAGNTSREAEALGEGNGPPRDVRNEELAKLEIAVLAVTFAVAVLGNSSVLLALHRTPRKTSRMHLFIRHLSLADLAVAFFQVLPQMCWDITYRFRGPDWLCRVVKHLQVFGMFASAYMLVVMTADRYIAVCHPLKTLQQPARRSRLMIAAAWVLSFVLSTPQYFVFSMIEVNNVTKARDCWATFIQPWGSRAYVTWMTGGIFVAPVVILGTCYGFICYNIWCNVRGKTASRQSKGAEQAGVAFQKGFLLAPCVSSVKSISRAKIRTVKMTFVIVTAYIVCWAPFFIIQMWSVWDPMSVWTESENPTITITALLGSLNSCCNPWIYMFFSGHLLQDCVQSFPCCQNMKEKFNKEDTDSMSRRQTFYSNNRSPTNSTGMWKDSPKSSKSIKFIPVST

As for `Cc1cc(NC(=O)c2ccccc2-n2cnc(Cn3nc(-c4ccc(Cl)cc4)n(C[C@H](O)C(F)(F)F)c3=O)n2)n(C)n1` [Example 213, 2-[3-({3-(4-Chlorophenyl)-5-oxo-4-[(2S)-3,3,3-trifluoro-2-hydroxypropyl]-4,5-dihydro-1H-1,2,4-triazol-1-yl}methyl)-1H-1,2,4-triazol-1-yl]-N-(1,3-dimethyl-1H-pyrazol-5-yl)benzamide], in assay [1], the half-inhibitory concentration (IC50) was found to be 7.55 nM and the “ratio IC50 hV2/hV1a” value worked out at 178.1. Besides, the half-inhibitory concentration (IC50) in assay [2] is 1340 nM.
For `Cc1n[nH]c(C)c1NC(=O)c1ccccc1-n1cnc(Cn2nc(-c3ccc(Cl)cc3)n(C[C@H](O)C(F)(F)F)c2=O)n1` [Example 214, 2-[3-({3-(4-Chlorophenyl)-5-oxo-4-[(2S)-3,3,3-trifluoro-2-hydroxypropyl]-4,5-dihydro-1H-1,2,4-triazol-1-yl}methyl)-1H-1,2,4-triazol-1-yl]-N-(3,5-dimethyl-1H-pyrazol-4-yl)benzamide], in assay [1], the 50% inhibitory concentration (IC50) is 1.65 nM and the “ratio IC50 hV2/hV1a” value is given as 854.5. The IC50 in assay [2] was determined as 1410 nM.
On the same counts, the results for `CCn1nccc1NC(=O)c1ccccc1-n1cnc(Cn2nc(-c3ccc(Cl)cc3)n(C[C@H](O)C(F)(F)F)c2=O)n1` [Example 215, 2-[3-({3-(4-Chlorophenyl)-5-oxo-4-[(2S)-3,3,3-trifluoro-2-hydroxypropyl]-4,5-dihydro-1H-1,2,4-triazol-1-yl}methyl)-1H-1,2,4-triazol-1-yl]-N-(1-ethyl-1H-pyrazol-5-yl)benzamide] are 11.7 nM, 102.1 and 1200 nM.
On the same counts, the results for `CC(NC(=O)c1ccccc1-n1cnc(Cn2nc(-c3ccc(Cl)cc3)n(C[C@H](O)C(F)(F)F)c2=O)n1)c1ccon1` (stereo partly drawn) [Example 216, 2-[3-({3-(4-Chlorophenyl)-5-oxo-4-[(2S)-3,3,3-trifluoro-2-hydroxypropyl]-4,5-dihydro-1H-1,2,4-triazol-1-yl}methyl)-1H-1,2,4-triazol-1-yl]-N-[1-(1,2-oxazol-3-yl)ethyl]benzamide] are 12 nM, 14.2 and 170 nM.
In the case of `O=C(Nc1ccc(F)cc1O)c1ccccc1-n1cnc(Cn2nc(-c3ccc(Cl)cc3)n(C[C@H](O)C(F)(F)F)c2=O)n1` [Example 217, 2-[3-({3-(4-Chlorophenyl)-5-oxo-4-[(2S)-3,3,3-trifluoro-2-hydroxypropyl]-4,5-dihydro-1H-1,2,4-triazol-1-yl}methyl)-1H-1,2,4-triazol-1-yl]-N-(4-fluoro-2-hydroxyphenyl)benzamide], the IC50 turned out to be 3.95 nM in assay [1] and 93.5 nM in assay [2]. Also, in assay [1], the “ratio IC50 hV2/hV1a” value amounted to 23.7.
Taken in the same sequence, the figures for `O=C(Nc1n[nH]cc1Cl)c1ccccc1-n1cnc(Cn2nc(-c3ccc(Cl)cc3)n(C[C@H](O)C(F)(F)F)c2=O)n1` [Example 218, 2-[3-({3-(4-Chlorophenyl)-5-oxo-4-[(2S)-3,3,3-trifluoro-2-hydroxypropyl]-4,5-dihydro-1H-1,2,4-triazol-1-yl}methyl)-1H-1,2,4-triazol-1-yl]-N-(4-chloro-1H-pyrazol-3-yl)benzamide] were 0.32 nM, 7.8 nM and 24.4.
`O=C(Nc1cccc[n+]1[O-])c1ccccc1-n1cnc(Cn2nc(-c3ccc(Cl)cc3)n(C[C@H](O)C(F)(F)F)c2=O)n1` [Example 219, 2-[3-({3-(4-Chlorophenyl)-5-oxo-4-[(2S)-3,3,3-trifluoro-2-hydroxypropyl]-4,5-dihydro-1H-1,2,4-triazol-1-yl}methyl)-1H-1,2,4-triazol-1-yl]-N-(1-oxidopyridin-2-yl)benzamide]: the IC50 in assay [1] is 21 nM; in assay [2], 41.5 nM. Also, the “ratio IC50 hV2/hV1a” value in assay [1] came out at 2.0.
On the same counts, the results for `Cc1cncc(NC(=O)c2ccccc2-n2cnc(Cn3nc(-c4ccc(Cl)cc4)n(C[C@H](O)C(F)(F)F)c3=O)n2)c1` [Example 220, 2-[3-({3-(4-Chlorophenyl)-5-oxo-4-[(2S)-3,3,3-trifluoro-2-hydroxypropyl]-4,5-dihydro-1H-1,2,4-triazol-1-yl}methyl)-1H-1,2,4-triazol-1-yl]-N-(5-methylpyridin-3-yl)benzamide] are 3.65 nM, 215 nM and 58.9.
Taken in the same sequence, the figures for `Cc1ncccc1NC(=O)c1ccccc1-n1cnc(Cn2nc(-c3ccc(Cl)cc3)n(C[C@H](O)C(F)(F)F)c2=O)n1` [Example 221, 2-[3-({3-(4-Chlorophenyl)-5-oxo-4-[(2S)-3,3,3-trifluoro-2-hydroxypropyl]-4,5-dihydro-1H-1,2,4-triazol-1-yl}methyl)-1H-1,2,4-triazol-1-yl]-N-(2-methylpyridin-3-yl)benzamide] were 4.95 nM, 460 nM and 92.9.
On the same counts, the results for `CC1CCC(C)C1NC(=O)c1ccccc1-n1cnc(Cn2nc(-c3ccc(Cl)cc3)n(C[C@H](O)C(F)(F)F)c2=O)n1` (stereo partly drawn) [Example 222, 2-[3-({3-(4-Chlorophenyl)-5-oxo-4-[(2S)-3,3,3-trifluoro-2-hydroxypropyl]-4,5-dihydro-1H-1,2,4-triazol-1-yl}methyl)-1H-1,2,4-triazol-1-yl]-N-(2,5-dimethylcyclopentyl)benzamide] are 4.85 nM, 185 nM and 38.1.
Consider `O=C(Nc1nccs1)c1ccccc1-n1cnc(Cn2nc(-c3ccc(Cl)cc3)n(C[C@H](O)C(F)(F)F)c2=O)n1` [Example 223, 2-[3-({3-(4-Chlorophenyl)-5-oxo-4-[(2S)-3,3,3-trifluoro-2-hydroxypropyl]-4,5-dihydro-1H-1,2,4-triazol-1-yl}methyl)-1H-1,2,4-triazol-1-yl]-N-(1,3-thiazol-2-yl)benzamide], for which, in assay [1], the IC50 turned out to be 1.5 nM and the “ratio IC50 hV2/hV1a” value was found to be 0.8. The IC50 in assay [2] was determined as 1.15 nM.
Taken in the same sequence, the figures for `NC(=O)CNC(=O)c1ccccc1-n1cnc(Cn2nc(-c3ccc(Cl)cc3)n(C[C@H](O)C(F)(F)F)c2=O)n1` [Example 225, N-(2-Amino-2-oxoethyl)-2-[3-({3-(4-chlorophenyl)-5-oxo-4-[(2S)-3,3,3-trifluoro-2-hydroxypropyl]-4,5-dihydro-1H-1,2,4-triazol-1-yl}methyl)-1H-1,2,4-triazol-1-yl]benzamide] were 5.5 nM, 38.2 and 210 nM.
Taken in the same sequence, the figures for `O=C(Nc1ccc(Cl)nc1)c1ccccc1-n1cnc(Cn2nc(-c3ccc(Cl)cc3)n(C[C@H](O)C(F)(F)F)c2=O)n1` [Example 226, 2-[3-({3-(4-Chlorophenyl)-5-oxo-4-[(2S)-3,3,3-trifluoro-2-hydroxypropyl]-4,5-dihydro-1H-1,2,4-triazol-1-yl}methyl)-1H-1,2,4-triazol-1-yl]-N-(6-chloropyridin-3-yl)benzamide] were 1.3 nM, 5.7 and 7.45 nM.
On the same counts, the results for `O=C(Nc1cccc(O)c1)c1ccccc1-n1cnc(Cn2nc(-c3ccc(Cl)cc3)n(C[C@H](O)C(F)(F)F)c2=O)n1` [Example 227, 2-[3-({3-(4-Chlorophenyl)-5-oxo-4-[(2S)-3,3,3-trifluoro-2-hydroxypropyl]-4,5-dihydro-1H-1,2,4-triazol-1-yl}methyl)-1H-1,2,4-triazol-1-yl]-N-(3-hydroxyphenyl)benzamide] are 1.21 nM, 55.8 and 67.5 nM.

One may read the IC50 as the concentration that inhibits the measured activity by half.
